In PubChem BioAssay (NCI):
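Briefly, cells in 96-well plates were exposed to five compound concentrations for 48 h, and endpoints were estimated by linear interpolation. GI50 marks 50% less growth. TGI is the concentration that stops growth completely.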

Key:
Assay in all cases: NCI-60 cell line screen, 48 h
SK-OV-3 ovarian = test system: SK-OV-3 ovarian
DU-145 prostate = test system: DU-145 prostate
UACC-257 melanoma = test system: UACC-257 melanoma
SF-268 CNS = test system: SF-268 CNS
M14 melanoma = test system: M14 melanoma
HOP-62 NSCLC = test system: HOP-62 NSCLC
PC-3 prostate = test system: PC-3 prostate
RXF 393 renal = test system: RXF 393 renal
SK-MEL-28 melanoma = test system: SK-MEL-28 melanoma
HCT-15 colon = test system: HCT-15 colon
NCI-H226 lung = test system: NCI-H226 lung
SNB-19 CNS = test system: SNB-19 CNS
CAKI-1 renal = test system: CAKI-1 renal
SNB-75 CNS = test system: SNB-75 CNS
HL-60(TB) leukemia = test system: HL-60(TB) leukemia
A498 renal = test system: A498 renal
SF-295 CNS = test system: SF-295 CNS
UACC-62 melanoma = test system: UACC-62 melanoma
LOX IMVI melanoma = test system: LOX IMVI melanoma
NCI/ADR-RES ovarian = test system: NCI/ADR-RES ovarian
HT29 colon = test system: HT29 colon
UO-31 renal = test system: UO-31 renal
HS 578T breast = test system: HS 578T breast
OVCAR-5 ovarian = test system: OVCAR-5 ovarian
SK-MEL-5 melanoma = test system: SK-MEL-5 melanoma
ACHN renal = test system: ACHN renal
IGROV1 ovarian = test system: IGROV1 ovarian
NCI-H522 lung = test system: NCI-H522 lung
MDA-MB-435 = test system: MDA-MB-435
SK-MEL-2 melanoma = test system: SK-MEL-2 melanoma
MALME-3M melanoma = test system: MALME-3M melanoma
EKVX NSCLC = test system: EKVX NSCLC
HCC-2998 colon = test system: HCC-2998 colon
MCF7 breast = test system: MCF7 breast
T-47D breast = test system: T-47D breast
NCI-H23 lung = test system: NCI-H23 lung
TK-10 renal = test system: TK-10 renal
SF-539 CNS = test system: SF-539 CNS
K-562 leukemia = test system: K-562 leukemia
HOP-92 NSCLC = test system: HOP-92 NSCLC
BT-549 breast = test system: BT-549 breast
KM12 colon = test system: KM12 colon
786-0 renal = test system: 786-0 renal
A549 NSCLC = test system: A549 NSCLC
U251 CNS = test system: U251 CNS
OVCAR-8 ovarian = test system: OVCAR-8 ovarian
SN12C renal = test system: SN12C renal
CCRF-CEM leukemia = test system: CCRF-CEM leukemia
OVCAR-3 ovarian = test system: OVCAR-3 ovarian
SW-620 colon = test system: SW-620 colon
NCI-H460 lung = test system: NCI-H460 lung
MDA-MB-231 breast = test system: MDA-MB-231 breast
COLO 205 colon = test system: COLO 205 colon
HCT-116 colon = test system: HCT-116 colon

O=C(CSCC(=O)N/N=C/c1cccc(C(F)(F)F)c1)N/N=C/c1cccc(C(F)(F)F)c1
TGI (SK-OV-3 ovarian): > 100 µM | TGI (DU-145 prostate): > 100 µM | TGI (UACC-257 melanoma): > 100 µM | TGI (SF-268 CNS): > 100 µM | TGI (M14 melanoma): > 100 µM | TGI (HOP-62 NSCLC): > 100 µM | TGI (PC-3 prostate): > 100 µM | TGI (RXF 393 renal): > 100 µM | TGI (SK-MEL-28 melanoma): > 100 µM | TGI (HCT-15 colon): > 100 µM | TGI (NCI-H226 lung): > 100 µM | TGI (SNB-19 CNS): > 100 µM | TGI (CAKI-1 renal): > 100 µM | TGI (SNB-75 CNS): > 100 µM | TGI (HL-60(TB) leukemia): > 100 µM | TGI (A498 renal): > 100 µM | TGI (SF-295 CNS): > 100 µM | TGI (UACC-62 melanoma): > 100 µM | TGI (LOX IMVI melanoma): > 100 µM | TGI (NCI/ADR-RES ovarian): > 100 µM | TGI (HT29 colon): > 100 µM | TGI (UO-31 renal): > 100 µM | TGI (HS 578T breast): > 100 µM | TGI (OVCAR-5 ovarian): > 100 µM | TGI (SK-MEL-5 melanoma): > 100 µM | TGI (ACHN renal): > 100 µM | TGI (IGROV1 ovarian): > 100 µM | TGI (NCI-H522 lung): > 100 µM | TGI (MDA-MB-435): > 100 µM | TGI (SK-MEL-2 melanoma): > 100 µM | TGI (MALME-3M melanoma): > 100 µM | TGI (EKVX NSCLC): > 100 µM | TGI (HCC-2998 colon): > 100 µM | TGI (MCF7 breast): > 100 µM | TGI (T-47D breast): > 100 µM | TGI (NCI-H23 lung): > 100 µM | TGI (TK-10 renal): > 100 µM | TGI (SF-539 CNS): > 100 µM | TGI (K-562 leukemia): > 100 µM | TGI (HOP-92 NSCLC): > 100 µM | TGI (BT-549 breast): > 100 µM

O=C(NNC(=O)C1CCN(S(=O)(=O)c2ccc(-c3ccccc3)cc2)CC1)c1ccc(C(F)(F)F)cc1
GI50 (KM12 colon): > 50 µM | TGI (KM12 colon): > 50 µM | GI50 (786-0 renal): 7.21 µM | TGI (786-0 renal): 34.1 µM | GI50 (UACC-257 melanoma): > 50 µM | TGI (UACC-257 melanoma): > 50 µM | GI50 (SF-268 CNS): > 50 µM | TGI (SF-268 CNS): > 50 µM | GI50 (M14 melanoma): 15.9 µM | TGI (M14 melanoma): > 50 µM | GI50 (HOP-62 NSCLC): 5.46 µM | TGI (HOP-62 NSCLC): 16.5 µM | GI50 (A549 NSCLC): > 50 µM | TGI (A549 NSCLC): > 50 µM | GI50 (PC-3 prostate): > 50 µM | TGI (PC-3 prostate): > 50 µM | GI50 (RXF 393 renal): 20.3 µM | TGI (RXF 393 renal): > 50 µM | GI50 (SK-MEL-28 melanoma): > 50 µM | TGI (SK-MEL-28 melanoma): > 50 µM | GI50 (HCT-15 colon): > 50 µM | TGI (HCT-15 colon): > 50 µM | GI50 (NCI-H226 lung): 14.6 µM | TGI (NCI-H226 lung): > 50 µM | GI50 (SNB-19 CNS): 15.4 µM | TGI (SNB-19 CNS): > 50 µM | GI50 (U251 CNS): 11.8 µM | TGI (U251 CNS): > 50 µM | GI50 (CAKI-1 renal): > 50 µM | TGI (CAKI-1 renal): > 50 µM | GI50 (OVCAR-8 ovarian): 22 µM | TGI (OVCAR-8 ovarian): > 50 µM | GI50 (SN12C renal): 21.4 µM | TGI (SN12C renal): > 50 µM | GI50 (HL-60(TB) leukemia): > 50 µM | TGI (HL-60(TB) leukemia): > 50 µM | GI50 (SF-295 CNS): > 50 µM | TGI (SF-295 CNS): > 50 µM | GI50 (UACC-62 melanoma): > 50 µM | TGI (UACC-62 melanoma): > 50 µM | GI50 (LOX IMVI melanoma): > 50 µM | TGI (LOX IMVI melanoma): > 50 µM | GI50 (CCRF-CEM leukemia): > 50 µM | TGI (CCRF-CEM leukemia): > 50 µM | GI50 (NCI/ADR-RES ovarian): > 50 µM | TGI (NCI/ADR-RES ovarian): > 50 µM | GI50 (HT29 colon): > 50 µM | TGI (HT29 colon): > 50 µM | GI50 (UO-31 renal): > 50 µM | TGI (UO-31 renal): > 50 µM | GI50 (HS 578T breast): 38.3 µM | TGI (HS 578T breast): > 50 µM | GI50 (OVCAR-3 ovarian): > 50 µM | TGI (OVCAR-3 ovarian): > 50 µM | GI50 (SW-620 colon): > 50 µM | TGI (SW-620 colon): > 50 µM | GI50 (OVCAR-5 ovarian): > 50 µM | TGI (OVCAR-5 ovarian): > 50 µM | GI50 (SK-MEL-5 melanoma): > 50 µM | TGI (SK-MEL-5 melanoma): > 50 µM | GI50 (NCI-H460 lung): > 50 µM | TGI (NCI-H460 lung): > 50 µM | GI50 (ACHN renal): > 50 µM | TGI (ACHN renal): > 50 µM | GI50 (IGROV1 ovarian): > 50 µM | TGI (IGROV1 ovarian): > 50 µM | GI50 (NCI-H522 lung): > 50 µM | TGI (NCI-H522 lung): > 50 µM | GI50 (MDA-MB-231 breast): 1.58 µM | TGI (MDA-MB-231 breast): 34.9 µM | GI50 (MDA-MB-435): > 50 µM | TGI (MDA-MB-435): > 50 µM | GI50 (SK-MEL-2 melanoma): > 50 µM | TGI (SK-MEL-2 melanoma): > 50 µM | GI50 (EKVX NSCLC): > 50 µM | TGI (EKVX NSCLC): > 50 µM | GI50 (HCC-2998 colon): 20.6 µM | TGI (HCC-2998 colon): > 50 µM | GI50 (COLO 205 colon): > 50 µM | TGI (COLO 205 colon): > 50 µM | GI50 (MCF7 breast): > 50 µM | TGI (MCF7 breast): > 50 µM | GI50 (T-47D breast): 3.99 µM | TGI (T-47D breast): > 50 µM | GI50 (NCI-H23 lung): 14.1 µM | TGI (NCI-H23 lung): > 50 µM | GI50 (TK-10 renal): 20.8 µM | TGI (TK-10 renal): > 50 µM | GI50 (HCT-116 colon): 4.77 µM | TGI (HCT-116 colon): 13.2 µM | GI50 (K-562 leukemia): > 50 µM | TGI (K-562 leukemia): > 50 µM | GI50 (HOP-92 NSCLC): 2.89 µM | TGI (HOP-92 NSCLC): > 50 µM | GI50 (BT-549 breast): 44.1 µM | TGI (BT-549 breast): > 50 µM
